Earlier results, collected in patent US20040180103A1, “Use of plants of the genus hypericum for facilitating the synchronization of a circadian rhythm” (priority 2001, published 2004).

Test system: circadian rhythms in Siberian hamsters
Conditions: 5 h phase shift under daily administration

In the case of COc1ccc2[nH]cc(CCNC(C)=O)c2c1 [melatonin], the “share of animals that adapt to the new light-dark cycle” value is listed as 71%.
